ChEMBL document CHEMBL4251578, “Design, synthesis and biological evaluation of novel 2-aminobenzamides containing dithiocarbamate moiety as histone deacetylase inhibitors and potent antitumor agents” (Eur J Med Chem, 2018)
Activity calls are given as the source filed them. The calls are words filed in the database; no cut-off is given here.

How the values were obtained:
[1] = tested on: SMMC-7721; assay: Induction of apoptosis in human SMMC7721 cells assessed as late apoptotic cells at 0.125 umol/L after 72 hrs by Alexa Fluor 488 Annexin/propidium iodide staining-based flow cytometric analysis (reference value: 0.29%); assay type: functional
[2] = tested on: SMMC-7721; assay: Induction of apoptosis in human SMMC7721 cells assessed as viable cells at 1 umol/L after 72 hrs by Alexa Fluor 488 Annexin/propidium iodide staining-based flow cytometric analysis (reference value: 97.14%); assay type: functional; conditions: SMMC-7721, 72 h, read-out: Activity
[3] = tested on: SMMC-7721; assay: Induction of apoptosis in human SMMC7721 cells assessed as early apoptotic cells at 1 umol/L after 72 hrs by Alexa Fluor 488 Annexin/propidium iodide staining-based flow cytometric analysis (reference value: 0.09%); assay type: functional
[4] = tested on: MGC-803; assay: Antiproliferative activity against human MGC803 cells at 2 uM after 72 hrs by CCK-8 assay relative to control; assay type: functional; conditions: MGC-803, 72 h
[5] = tested on: SMMC-7721; assay: Induction of apoptosis in human SMMC7721 cells assessed as necrotic cells at 1 umol/L after 72 hrs by Alexa Fluor 488 Annexin/propidium iodide staining-based flow cytometric analysis (reference value: 2.48%); assay type: functional
[6] = tested on: SMMC-7721; assay: Induction of apoptosis in human SMMC7721 cells assessed as necrotic cells at 4 umol/L after 72 hrs by Alexa Fluor 488 Annexin/propidium iodide staining-based flow cytometric analysis (reference value: 2.48%); assay type: functional
[7] = tested on: SMMC-7721; assay: Induction of apoptosis in human SMMC7721 cells assessed as early apoptotic cells at 0.125 umol/L after 72 hrs by Alexa Fluor 488 Annexin/propidium iodide staining-based flow cytometric analysis (reference value: 0.09%); assay type: functional
[8] = tested on: SMMC-7721; assay: Antiproliferative activity against human SMMC7721 cells after 72 hrs by CCK-8 assay; assay type: functional, cell-based; conditions: SMMC-7721, 72 h
[9] = tested on: SMMC-7721; assay: Induction of apoptosis in human SMMC7721 cells assessed as viable cells at 0.125 umol/L after 72 hrs by Alexa Fluor 488 Annexin/propidium iodide staining-based flow cytometric analysis (reference value: 97.14%); assay type: functional; conditions: SMMC-7721, 72 h, read-out: Activity
[10] = tested on: SMMC-7721; assay: Cell cycle arrest in human SMMC7721 cells assessed as accumulation of cells at G2/M phase at 1 umol/L after 72 hrs by propidium iodide staining-based flow cytometric analysis (reference value: 14.14%); assay type: functional
[11] = tested on: HeLa; assay: Antiproliferative activity against human HeLa cells at 2 uM after 72 hrs by CCK-8 assay relative to control; assay type: functional
[12] = tested on: SMMC-7721; assay: Inhibition of colony formation in human SMMC7721 cells after 7 days by crystal violet staining-based assay; assay type: functional, cell-based
[13] = tested on: SMMC-7721; assay: Cell cycle arrest in human SMMC7721 cells assessed as accumulation of cells at S phase at 0.125 umol/L after 72 hrs by propidium iodide staining-based flow cytometric analysis (reference value: 5.21%); assay type: functional
[14] = tested on: A-375; assay: Antiproliferative activity against human A375 cells at 2 uM after 72 hrs by CCK-8 assay relative to control; assay type: functional; conditions: A-375, 72 h
[15] = tested on: SMMC-7721; assay: Induction of apoptosis in human SMMC7721 cells assessed as late apoptotic cells at 4 umol/L after 72 hrs by Alexa Fluor 488 Annexin/propidium iodide staining-based flow cytometric analysis (reference value: 0.29%); assay type: functional
[16] = tested on: SMMC-7721; assay: Induction of apoptosis in human SMMC7721 cells assessed as viable cells at 4 umol/L after 72 hrs by Alexa Fluor 488 Annexin/propidium iodide staining-based flow cytometric analysis (reference value: 97.14%); assay type: functional; conditions: SMMC-7721, 72 h, read-out: Activity
[17] = tested on: HeLa; assay: Antiproliferative activity against human HeLa cells after 72 hrs by CCK-8 assay; assay type: functional, cell-based
[18] = tested on: SMMC-7721; assay: Induction of apoptosis in human SMMC7721 cells assessed as late apoptotic cells at 1 umol/L after 72 hrs by Alexa Fluor 488 Annexin/propidium iodide staining-based flow cytometric analysis (reference value: 0.29%); assay type: functional
[19] = tested on: HeLa; assay: Antiproliferative activity against human HeLa cells at 8 uM after 72 hrs by CCK-8 assay relative to control; assay type: functional
[20] = tested on: SMMC-7721; assay: Induction of apoptosis in human SMMC7721 cells assessed as necrotic cells at 0.125 umol/L after 72 hrs by Alexa Fluor 488 Annexin/propidium iodide staining-based flow cytometric analysis (reference value: 2.48%); assay type: functional
[21] = tested on: SMMC-7721; assay: Cell cycle arrest in human SMMC7721 cells assessed as accumulation of cells at G0/G1 phase at 1 umol/L after 72 hrs by propidium iodide staining-based flow cytometric analysis (reference value: 80.65%); assay type: functional
[22] = tested on: MGC-803; assay: Antiproliferative activity against human MGC803 cells at 8 uM after 72 hrs by CCK-8 assay relative to control; assay type: functional; conditions: MGC-803, 72 h
[23] = tested on: SMMC-7721; assay: Induction of apoptosis in human SMMC7721 cells assessed as early apoptotic cells at 4 umol/L after 72 hrs by Alexa Fluor 488 Annexin/propidium iodide staining-based flow cytometric analysis (reference value: 0.09%); assay type: functional
[24] = tested on: A-375; assay: Antiproliferative activity against human A375 cells after 72 hrs by CCK-8 assay; assay type: functional, cell-based; conditions: A-375, 72 h
[25] = tested on: SMMC-7721; assay: Cell cycle arrest in human SMMC7721 cells assessed as accumulation of cells at S phase at 1 umol/L after 72 hrs by propidium iodide staining-based flow cytometric analysis (reference value: 5.21%); assay type: functional
[26] = tested on: SMMC-7721; assay: Cell cycle arrest in human SMMC7721 cells assessed as accumulation of cells at G0/G1 phase at 4 umol/L after 72 hrs by propidium iodide staining-based flow cytometric analysis (reference value: 80.65%); assay type: functional
[27] = tested on: NCI-H1299; assay: Antiproliferative activity against human NCI-H1299 cells after 72 hrs by CCK-8 assay; assay type: functional, cell-based; conditions: NCI-H1299, 72 h
[28] = tested on: SMMC-7721; assay: Cell cycle arrest in human SMMC7721 cells assessed as accumulation of cells at G2/M phase at 4 umol/L after 72 hrs by propidium iodide staining-based flow cytometric analysis (reference value: 14.14%); assay type: functional
[29] = target: Histone deacetylase 2 (Homo sapiens, UniProt Q92769); assay: Inhibition of human recombinant HDAC2 using Fluor de Lys-Green as substrate preincubated for 5 mins followed by substrate addition and measured after 1 hr by fluorescence assay
Chain of Histone deacetylase 2 (Q92769 whole entry): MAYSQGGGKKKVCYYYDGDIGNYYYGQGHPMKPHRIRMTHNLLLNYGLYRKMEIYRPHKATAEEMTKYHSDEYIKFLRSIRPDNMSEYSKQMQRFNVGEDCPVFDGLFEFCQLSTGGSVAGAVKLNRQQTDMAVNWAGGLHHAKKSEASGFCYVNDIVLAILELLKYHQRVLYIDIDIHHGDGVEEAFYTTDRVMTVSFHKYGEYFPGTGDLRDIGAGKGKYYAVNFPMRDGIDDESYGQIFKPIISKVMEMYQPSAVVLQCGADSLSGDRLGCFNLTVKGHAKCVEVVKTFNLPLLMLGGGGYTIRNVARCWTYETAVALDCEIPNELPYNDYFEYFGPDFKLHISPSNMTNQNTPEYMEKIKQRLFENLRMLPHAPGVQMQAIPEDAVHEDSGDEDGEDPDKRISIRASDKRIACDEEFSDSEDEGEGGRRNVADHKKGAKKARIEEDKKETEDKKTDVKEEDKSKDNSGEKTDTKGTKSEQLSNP

[30] = tested on: SMMC-7721; assay: Cell cycle arrest in human SMMC7721 cells assessed as accumulation of cells at S phase at 4 umol/L after 72 hrs by propidium iodide staining-based flow cytometric analysis (reference value: 5.21%); assay type: functional
[31] = tested on: A-375; assay: Antiproliferative activity against human A375 cells at 8 uM after 72 hrs by CCK-8 assay relative to control; assay type: functional; conditions: A-375, 72 h
[32] = tested on: SMMC-7721; assay: Cell cycle arrest in human SMMC7721 cells assessed as accumulation of cells at G2/M phase at 0.125 umol/L after 72 hrs by propidium iodide staining-based flow cytometric analysis (reference value: 14.14%); assay type: functional
[33] = tested on: HCT-116; assay: Antiproliferative activity against human HCT116 cells after 72 hrs by CCK-8 assay; assay type: functional, cell-based; conditions: HCT-116, 72 h
[34] = tested on: MGC-803; assay: Antiproliferative activity against human MGC803 cells after 72 hrs by CCK-8 assay; assay type: functional, cell-based; conditions: MGC-803, 72 h

## Nc1ccc(F)cc1NC(=O)c1ccc(CNC(=O)/C=C/c2cccnc2)cc1
[1]
  Activity: 11.62%
[2]
  viability at 1 µM: 73.9%
[3]
  Activity: 4.59%
[4]
  inhibition at 2 µM: 7.8%
[5]
  Activity: 11.25%
[6]
  Activity: 3.06%
[7]
  Activity: 6.02%
[8]
  IC50: > 26 µM
[9]
  viability at 0.125 µM: 78.3%
[10]
  Activity: 18.67%
[11]
  inhibition at 2 µM: 14.7%
[12]
  inhibition: Active
[13]
  Activity: 5.71%
[14]
  inhibition at 2 µM: 21.3%
[15]
  Activity: 17.32%
[16]
  viability at 4 µM: 74.2%
[17]
  IC50: 11.8 µM
[18]
  Activity: 10.22%
[19]
  inhibition at 8 µM: 41.4%
[20]
  Activity: 4.08%
[21]
  Activity: 76.07%
[22]
  inhibition at 8 µM: 54.5%
[23]
  Activity: 5.45%
[24]
  IC50: 7.67 µM
[25]
  Activity: 5.26%
[26]
  Activity: 76.41%
[27]
  IC50: 16.3 µM
[28]
  Activity: 18.05%
[29]
  IC50: 0.37 µM
[30]
  Activity: 5.54%
[31]
  inhibition at 8 µM: 54.3%
[32]
  Activity: 17.2%

## Nc1ccccc1NC(=O)c1ccc(CNC(=O)OCc2cccnc2)cc1 [ENTINOSTAT]
[1]
  Activity: 8.41%
[2]
  viability at 1 µM: 73.9%
[3]
  Activity: 11.21%
[4]
  inhibition at 2 µM: 25.3%
[33]
  IC50: 0.47 µM
[5]
  Activity: 5.22%
[6]
  Activity: 7.47%
[7]
  Activity: 4.56%
[8]
  IC50: 5.97 µM
[9]
  viability at 0.125 µM: 77.5%
[10]
  Activity: 15.55%
[11]
  inhibition at 2 µM: 62.2%
[13]
  Activity: 4.54%
[14]
  inhibition at 2 µM: 30.2%
[15]
  Activity: 15.13%
[16]
  viability at 4 µM: 57.3%
[17]
  IC50: 1.6 µM
[18]
  Activity: 9.64%
[19]
  inhibition at 8 µM: 76.6%
[20]
  Activity: 9.56%
[21]
  Activity: 79.1%
[34]
  IC50: 4.89 µM
[22]
  inhibition at 8 µM: 67.2%
[23]
  Activity: 20.06%
[24]
  IC50: 3.67 µM
[25]
  Activity: 5.35%
[26]
  Activity: 71.21%
[27]
  IC50: 6.74 µM
[28]
  Activity: 21.24%
[30]
  Activity: 7.55%
[31]
  inhibition at 8 µM: 88.7%
[32]
  Activity: 17.36%
